According to article PMC7143967, “Extensive Therapeutic Drug Monitoring of Colistin in Critically Ill Patients Reveals Undetected Risks” (Microorganisms, 2020):
Bridge positions count the residues as written; N and C are the ends. Square brackets hold non-standard residues; d marks the D form. Peptide text beside a SMILES is read from it. * marks the point of attachment. X1 = CC[C@H](C)CCCCC(=O)*; Dab = NCC[C@H](N)C(=O)O

Experiments:
[1] = Therapeutic drug monitoring of CMS and Colistin plasma levels by HPLC-MS/MS
Protocol: Eight critically ill patients, some of them under renal replacement therapy (continuous venovenous hemodialysis (CVVHD), intermittent HD (IHD)), infected with gram negative MDR pathogens were treated with CMS. Daily measurements of serum creatinine levels and estimation of glomerular filtration rate using the CKD-EPI Creatinine (eGFR CKD-EPI) equation [16] were used to monitor renal function. Samples were collected multiple times daily prior to/after every dose of CMS for trough/peak level determination of CMS and Colistin. After termination of the Colistin treatment course, samples were derived from the individual patient, to ensure complete and timely removal of Colistin. Blood samples were immediately centrifuged and refrigerated. The plasma was frozen and kept at −20 °C until analysis. After analysis samples were kept at −80 °C for long term storage.
We aimed for target Colistin serum levels of >2 mg/L in patients suffering from A. baumannii infection alone, or >4 mg/L in patients with singular Pseudomonas infections or combined infections. Dosing was done with or without a loading dose of 6–9 million international units (IU) Colistin and subsequent doses of either 3 × 2 million IU/day, 3 × 3 million IU/day, 3 × 4 million IU or 2 × 4.5 million IU, as indicated.
A total of 50 μL of plasma samples, calibrators and controls were precipitated with 200 μL of ice cold isopropanol containing 0.5 μg/mL polymyxin B as internal standard and 0.02% TFA. After 10 min at −20 °C, centrifuging 5 min with 20,000 g at 4 °C, 100 μL of the supernatant was diluted with 400 μL of the appropriate solvent (water or 30% DMSO in water respectively) and put into the auto sampler at 4 °C. LC-MS/MS system: Dionex UltiMate 3000 XRS autosampler, XRS quaternary UHPLC pump, RS Column compartment. Column used: Aeris Peptide 1.7 μm XB-C18 2.1 × 100 mm (Phenomenex), 40 °C. Mobile phases: Gradient starting with 19% lcms-grade acetonitrile (Baker) and 0.05% TFA (Sigma) in water (Milli-Q) to 40% within 1.6 min at a flow rate of 500 μL/min. Mass spectrometer: TSQ-Vantage triple quad mass spectrometer (Thermo Fisher Scientific, San Jose, CA, USA), HESI-source, positive electrospray ionization mode, settings: ionization voltage 3500 V, vaporizer temperature 500 °C, sheath gas flow 40 (arb), auxiliary gas flow 15 (arb), capillary temperature 200 °C and declustering voltage 10 V. For multiple reaction monitoring (MRM), argon was used as collision gas at a pressure of 1.1 × 10^−3 Torr. Doubly charged parent ions of Colistins (578.5/100.9, 585.4/100.9) and polymyxin B (602.4/100.9) were used for fragmentation and the product ions and collision energies have been optimized for best intensities. A detailed procedure protocol including description of standardization, sample preparation, sample stability etc., is available upon request.

clinical = assay type: in vivo, human (critically ill ICU patients); settings: for t1/2 of Colistin: first-order fit
Protocol: (§1) Blood samples were immediately centrifuged and refrigerated.
While CMS is excreted primarily via the kidneys, Colistin elimination pathways remain unclear. […] We were able to calculate elimination half-life for Colistin in 6 out of 8 patients. In our cohort, elimination half-time was greatly extended to a mean of 22.0 h (Figure 2A). The individual half-life kinetics, including details on curve fitting, are provided in the Supplementary Materials (Supplementary Materials “Elimination half times of Colistin” Figures S1–S6). Individual elimination kinetics followed a first-order kinetic. In one patient (Patient 2), we established CRRT in the midst of the elimination time course. This allowed us to forward project kinetics without CRRT and backwards interpolate kinetics with CRRT. […] The amount of available CMS relevantly impacts upon Colistin levels, since CMS acts as a pro-drug. Thus, elimination of CMS is key to reduce Colistin plasma levels whereas CMS accumulation is the source for Colistin build up. CMS elimination can be rapidly affected by changes of renal function and distribution volume. CMS trough levels might indicate potential accumulation of CMS and subsequent accumulation of Colistin. This is of potential relevance when renal CMS elimination might be impaired.
Extensive Therapeutic Drug Monitoring Of
Supplemental material 1 – elimination half times of Colistin
Figure S1: plasma levels of Colistin after cessation of CMS administration. (A) linear
scaling of colistin plasma levels in [mg/L]; fit of an 1st decay elimination curve, y =
1,5111e-0,029x, R2= 0.97, p<0.001; (B) linear scaling colistin plasma levels in [mg/L] after
(also on this page, place not known: 1 st Colistin [mg/L] ln (Colistin [mg/L]) time [h] time [h] (A) (B))
(1 picture or pasted object on this page, not shown here)

[2] = tested on: carbapenem resistant A. baumannii (CRAB); assay: Clinical/microbiological outcome of CMS/Colistin treatment; assay type: in vivo, human (critically ill ICU patients)
Protocol: Microbiology testing was performed by the university’s Department of Microbiology. Samples included regular swab testing for screening purposes (nasal, inguinal, anal, tracheal) and specific testing of blood cultures, wound samples for detection of tissue infection, bronchoalveolar lavage (BAL) fluid and urine.

[3] = cited from earlier work; for elimination by prolonged intermittent RRT: ref Schmidt et al. [24]
Description: Colistin was isolated from Bacillus polymyxa subsp. colistinus and consists of a cyclic heptapeptide and a tripeptide side chain acetylated at the N-terminus by a fatty acid moiety. Earlier commercially available Colistin consisted of a mixture of several chemically related subcomponents, including the two major components Colistin A and Colistin B, with a known, concentration-dependent (nephro-, neuro-, oto-) toxicity. […] Following par ... || While CMS is excreted primarily via the kidneys, Colistin elimination pathways remain unclear. […] We were able to calculate elimination half-life for Colistin in 6 out of 8 patients. In our cohort, elimination half-time was greatly extended to a mean of 22.0 h (Figure 2A). […] Subsequently CRRT became necessary due to sustained renal failu ...

[4] = design: species or system human (critically ill ICU patients); settings: in vivo
Description: as §1

CC[C@H](C)CCCCC(=O)N[C@@H](CCN)C(=O)N[C@H](C(=O)N[C@@H](CCN)C(=O)N[C@H]1CCNC(=O)[C@H]([C@@H](C)O)NC(=O)[C@H](CCN)NC(=O)[C@H](CCN)NC(=O)[C@H](CC(C)C)NC(=O)[C@@H](CC(C)C)NC(=O)[C@H](CCN)NC1=O)[C@@H](C)O [Colistin] (X1-[Dab]T[Dab][Dab][Dab][dL]L[Dab][Dab]T; lactam 4-C)
time to Colistin levels >2 mg/L after dose increase ([1]; Patient 2, dose increased from 3 × 2 to 3 × 4 million IU): 48 h | time to sufficient Colistin levels ([1]; Patient 4, loading dose 9 million IU, then 3 × 3 million IU CMS daily, target 4 mg/L): eight | time to target Css,avg of ~4 mg/L after dose increase ([1]; Patient 4, under CVVHDF, 3 × 4 million IU per day): four | time to Colistin plasma levels between 3–4 mg/L ([1]; Patient 6, second treatment cycle, loading dose 9 million IU, then 3 million IU CMS three times a day): 8 to 16 h | time to target Colistin plasma levels ([1]; Patient 7, second treatment cycle, loading dose 9 million IU, 4.5 million IU twice daily, CVVHDF): three | accumulation in plasma ([1]; Patient 8, IHD-adjusted dosing with loading dose of 9 million IU, CMS stopped after 3 days): rapid accumulation | level at 48 h ([1]; human, in vivo): > 2000 ng/mL | level at 96 h ([1]; human, in vivo): ~4000 ng/mL | level at 720 h ([1]; human, in vivo): < 2000 ng/mL | mean Colistin peak level ([1]; plasma, sampled 30 min after CMS injection, all patients pooled, mean (±SD), n = 383, HPLC-MS/MS, unit not given): 3.5 (±1.3, n = 383) | mean Colistin trough level ([1]; plasma, sampled immediately prior to CMS injection, all patients pooled, mean (±SD), n = 386, HPLC-MS/MS, unit not given): 3.45 (±1.3, n = 386) | t1/2 of Colistin (clinical; Patient 1, eGFR 119 mL/min/1.73m^2, RRT none, R2 = 0.97): 23.6 h | t1/2 of Colistin (clinical; Patient 2, eGFR 27 mL/min/1.73m^2, RRT none, R2 = 0.99): 23.43 h | t1/2 of Colistin (clinical; Patient 4, eGFR 58 mL/min/1.73m^2, RRT CVVHDF, R2 = 0.996): 19.5 h | t1/2 of Colistin (clinical; Patient 5, eGFR 59 mL/min/1.73m^2, RRT IHD, R2 = 0.98): 16.5 h | t1/2 of Colistin (clinical; Patient 6, eGFR 99 mL/min/1.73m^2, RRT CVVHDF, R2 = 0.91): 30.9 h | t1/2 of Colistin (clinical; Patient 8, eGFR 51 mL/min/1.73m^2, RRT IHD, R2 = 0.999): 17.9 h | half-life (clinical; human, in vivo, mean of 6 out of 8 patients, plasma after end of CMS treatment, first-order kinetic, read-out: elimination half-time of Colistin, mean (converted)): 22 h | result of treatment ([2]; Patient 1, CRAB wound infection, 3 × 3 million IU CMS, 7 days, colonization persisted): eradication of the CRAB wound infection was achieved | result of treatment ([2]; Patient 2, CRAB bloodstream, wound and pulmonary infection, colonization and pulmonary infection remained): cured the bloodstream infection | result of treatment ([2]; Patient 6, first treatment cycle, bloodstream and pulmonary CRAB infection): bloodstream infection was cured but colonization persisted | elimination by prolonged intermittent RRT [3]: up to 50%

Colistin methanosulfate [CMS]
mean CMS trough level ([1]; in vivo): 1.6 mg/L | mean CMS peak level ([1]; plasma, sampled 30 min after CMS injection, all patients pooled, mean (±SD), n = 381, HPLC-MS/MS, unit not given): 8.7 (±4.1, n = 381) | result of treatment ([2]; Patient 3, CRAB bloodstream and wound infection, after dose increase to 3 × 4 million IU): eradication of both bloodstream and wound infection | result of treatment ([2]; Patient 4, in combination with surgical focus eradication, MDR Pseudomonas infection and colonization persisted): the CRAB infection was eliminated | result of treatment ([2]; Patient 5, 3 × 4 million IU, colonization with CRAB persisted): successfully eradicated CRAB from the bloodstream and from pulmonary samples | result of treatment ([2]; Patient 6, second treatment cycle, recurrent CRAB bloodstream infection, blood stream samples): eradication of CRAB within 3 days of treatment | result of treatment ([2]; Patient 7, first treatment cycle, 6 days of CMS): successful eradication of CRAB from wound samples | result of treatment ([2]; Patient 7, second treatment cycle, 4.5 million IU twice daily, resistant colonization remained): the bloodstream infection was successfully eradicated | renal function (eGFR) under treatment [4]: gradual decline of renal function | portion of CMS undergoing renal excretion [3]: about two thirds | elimination by prolonged intermittent RRT [3]: up to 50%
